Experimental data taken from patent publication US9000022B2 (Exelixis Patent Company LLC, priority 2005, dated 2015).

System: LXRα and/or LXRβ
Experiment: Co-transfection assay (LXRE luciferase reporter, CV-1 cells)
Assay type: cell-based, human
Conditions: for IC50 or EC50 (potency, activation or inhibition): tested as described in Example 33, IC50 or EC50 for LXRα and/or LXRβ, isoform not specified, read-out: activity (IC50 or EC50 for LXR); for EC50: read-out: activity (IC50 or EC50 for LXR), tested as described in Example 33, isoform not specified
How it was run: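 Luciferase signal measures LXR-RXR transcriptional activation in transiently transfected CV-1 cells carrying human LXRα or LXRβ, RXRα and a single-copy LXRE reporter. Cells were exposed to compound for 20 h at 37 °C with at most 1% DMSO, using 10 μM final for screening. Potency was derived from 4-parameter fits of 8-point, half-log dose curves averaged over ≥3 runs, and efficacy was expressed as % of a reference agonist.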

IC50 or EC50 (potency, activation or inhibition) [nM] | SMILES | EC50 [nM]
< 1000 | CS(=O)(=O)c1cccc(-c2ccc(-n3cc(C(F)(F)F)nc3-c3ccccc3C(F)(F)F)nc2)c1 [Example 369, 5-[3-(methylsulfonyl)phenyl]-2-{4-(trifluoromethyl)-2-[2-(trifluoro-methyl)phenyl]-1H-imidazol-1-yl}pyridine] | –
< 1000 | CCc1ccccc1-c1nc(/C(C)=N/O)cn1-c1ccc(-c2cccc(S(C)(=O)=O)c2)cc1 [Example 71, (E)-1-(2-(2-ethylphenyl)-1-(3′-(methylsulfonyl)biphenyl-4-yl)-1H-imidazol-4-yl)ethanone oxime] | –
1000 to 10000 | CCS(=O)(=O)c1cccc(-c2ccc(-n3cc(C(C)(C)O)nc3-c3ccccc3Cl)cc2)c1 [Example 415, 2-{2-(2-chlorophenyl)-1-[3′-(ethylsulfonyl)biphenyl-4-yl]-1H-imidazol-4-yl}propan-2-ol] | –
< 1000 | CC(=O)c1cn(-c2ccc(-c3cccc(S(C)(=O)=O)c3)cc2)c(-c2ccccc2C(F)(F)F)n1 [Example 411, 1-{1-[3′-(methylsulfonyl)biphenyl-4-yl]-2-[2-(trifluoromethyl)phenyl]-1H-imidazol-4-yl}ethanone] | –
1000 to 10000 | CC(C)(O)c1cn(-c2ccc(-c3cccc(S(N)(=O)=O)c3)cc2)c(-c2ccccc2Cl)n1 [Example 384, 4′-[2-(2-chlorophenyl)-4-(1-hydroxy-1-methylethyl)-1H-imidazol-1-yl]biphenyl-3-sulfonamide] | –
< 1000 | Cc1cc(-c2cccc(S(C)(=O)=O)c2)ccc1-n1cc(C(=S)NCC(F)(F)F)nc1-c1ccccc1C(C)C [Example 75, 2-(2-isopropylphenyl)-1-(3-methyl-3′-(methylsulfonyl)biphenyl-4-yl)-N-(2,2,2-trifluoroethyl)-1H-imidazole-4-carbothioamide] | –

Continued, molecule first:

SMILES | IC50 or EC50 (potency, activation or inhibition) [nM] | EC50 [nM]
CC(C)(O)c1cn(-c2ccc(-c3ccc(CO)c(S(C)(=O)=O)c3)cc2)c(-c2c(F)cccc2F)n1 [Example 103, 2-(2-(2,6-difluorophenyl)-1-(4′-(hydroxymethyl)-3′-(methyl-sulfonyl)biphenyl-4-yl)-1H-imidazol-4-yl)propan-2-ol] | 1000 to 10000 | –
Cc1cc(-c2cccc(S(C)(=O)=O)c2)ccc1-n1cc(C(C)(C)O)nc1Cc1cccc(Cl)c1Cl [Example 23, 2-(2-(2,3-dichlorobenzyl)-1-(3-methyl-3′-(methylsulfonyl)biphenyl-4-yl)-1H-imidazol-4-yl)propan-2-ol] | – | < 1000
CCS(=O)(=O)c1cccc(-c2ccc(-n3cc(C(C)(C)O)nc3Cc3cccc(Cl)c3Cl)c(C)c2)c1 [Example 24, 2-(2-(2,3-dichlorobenzyl)-1-(3′-(ethylsulfonyl)-3-methylbiphenyl-4-yl)-1H-imidazol-4-yl)propan-2-ol] | – | < 1000
CC(C)(O)c1cn(Cc2ccccc2Cl)c(-c2ccc(-c3cccc(S(C)(=O)=O)c3)cc2)n1 [Example 443, 2-(1-(2-chlorobenzyl)-2-(3′-(methylsulfonyl)biphenyl-4-yl)-1H-imidazol-4-yl)propan-2-ol] | < 1000 | –
CCOC(=O)c1cn(-c2ccc(Br)cc2)c(-c2ccccc2Cl)n1 [Example 377, ethyl 1-(4-bromophenyl)-2-(2-chlorophenyl)-1H-imidazole-4-carboxylate] | 1000 to 10000 | –
CC(C)(O)c1cn(-c2ccc(-c3ccc(CO)c(S(C)(=O)=O)c3)cc2F)c(-c2c(Cl)cccc2Cl)n1 [Example 122, 2-(2-(2,6-dichlorophenyl)-1-(3-fluoro-4′-(hydroxymethyl)-3′-(methylsulfonyl)biphenyl-4-yl)-1H-imidazol-4-yl)propan-2-ol] | < 1000 | –
CCS(=O)(=O)c1cccc(-c2ccc(-n3cc(C(C)(C)O)nc3-c3c(F)cccc3Cl)c(Cl)c2)c1 [Example 146, 2-(1-(3-chloro-3′-(ethyl-sulfonyl)biphenyl-4-yl)-2-(2-chloro-6-fluorophenyl)-1H-imidazol-4-yl)propan-2-ol] | < 1000 | –
Cc1cc(-c2cccc(S(C)(=O)=O)c2)cc(Cl)c1-n1cc(C(C)(C)O)nc1-c1ccccc1Cl [Example 168, 2-(1-(3-chloro-5-methyl-3′-(methyl-sulfonyl)biphenyl-4-yl)-2-(2-chlorophenyl)-1H-imidazol-4-yl)propan-2-ol] | 1000 to 10000 | –
Cc1cc(-c2ccc(CO)c(S(C)(=O)=O)c2)ccc1-n1cc(C(C)(C)O)nc1-c1ccccc1C(F)(F)F [Example 171] | < 1000 | –
CCS(=O)(=O)c1cccc(-c2ccc(-n3cc(C(C)(C)O)nc3-c3c(F)cccc3F)c(Cl)c2)c1 [Example 158, 2-(1-(3-chloro-3′-(ethyl-sulfonyl)biphenyl-4-yl)-2-(2,6-difluorophenyl)-1H-imidazol-4-yl)propan-2-ol] | < 1000 | –
CCS(=O)(=O)c1cccc(-c2ccc(-n3cc(C(C)(C)O)nc3-c3c(F)cccc3Cl)c(F)c2)c1 [Example 126, 2-(2-(2-chloro-6-fluorophenyl)-1-(3′-(ethylsulfonyl)-3-fluorobiphenyl-4-yl)-1H-imidazol-4-yl)propan-2-ol] | < 1000 | –
CCS(=O)(=O)c1cccc(-c2ccc(-n3cc(C(C)(C)O)nc3C(C)(C)c3cccc(Cl)c3Cl)c(Cl)c2)c1 [Example 452, 2-(1-(3-chloro-3′-(ethyl-sulfonyl)biphenyl-4-yl)-2-(2-(2,3-dichlorophenyl)propan-2-yl)-1H-imidazol-4-yl)propan-2-ol] | < 1000 | –
CCS(=O)(=O)c1cccc(-c2ccc(-n3cc(C(C)(C)O)nc3-c3cccc4ccccc34)c(Cl)c2)c1 [Example 31, 2-(1-(3-chloro-3′-(ethyl-sulfonyl)biphenyl-4-yl)-2-(naphthalen-1-yl)-1H-imidazol-4-yl)propan-2-ol] | < 1000 | –
